Results taken from ChEMBL document CHEMBL3885881, “DrugMatrix”.

Species on record: Rattus norvegicus
Experiment: DrugMatrix - Regimen: Daily Repeat
Type: toxicity, organism-based, Sprague-Dawley
Design: regimen Daily Repeat, gender Male, age 6-8 weeks
Conditions: in vivo, po, 34 mg/kg, route oral GAVAGE, dose level Low, vehicle .5 % CMC; for ABSOLUTE BASOPHIL / ABSOLUTE EOSINOPHIL / ABSOLUTE LYMPHOCYTE / ABSOLUTE MONOCYTE / ABSOLUTE SEGMENTED NEUTROPHIL / BASOPHIL / EOSINOPHIL / ERYTHROCYTE COUNT / HEMATOCRIT / HEMOGLOBIN / LEUKOCYTE COUNT / LYMPHOCYTE / MEAN CORPUSCULAR HEMOGLOBIN / MEAN CORPUSCULAR HEMOGLOBIN CONCENTRATION / MEAN CORPUSCULAR VOLUME / MONOCYTE / NEUTROPHIL / NUCLEATED RED BLOOD CELLS / PLATELET COUNT: tissue Blood; for ALANINE AMINOTRANSFERASE / ALBUMIN / ALKALINE PHOSPHATASE / ASPARTATE AMINOTRANSFERASE / BLOOD UREA NITROGEN / CARBON DIOXIDE / CHLORIDE / CHOLESTEROL / CREATINE PHOSPHOKINASE / CREATININE / GLUCOSE / LACTATE DEHYDROGENASE / LIPASE / PHOSPHORUS / POTASSIUM / SODIUM / TOTAL BILIRUBIN / TOTAL PROTEIN / URIC ACID: tissue Plasma

NS(=O)(=O)c1cc(C(=O)O)c(NCc2ccco2)cc1Cl [FUROSEMIDE] was tested, and the “ABSOLUTE BASOPHIL” value (72 h, time 3 day) was 0 CELLS/uL, the “ABSOLUTE EOSINOPHIL” value (72 h, time 3 day) was 0 CELLS/uL and the “ABSOLUTE LYMPHOCYTE” value (72 h, time 3 day) was 13709 CELLS/uL. The “ABSOLUTE MONOCYTE” value (72 h, time 3 day) was 86 CELLS/uL, the “ABSOLUTE SEGMENTED NEUTROPHIL” value (72 h, time 3 day) was 1038.33 CELLS/uL and the BASOPHIL (72 h, time 3 day) was 0%. For the same molecule, the EOSINOPHIL (72 h, time 3 day) was 0%, the “ERYTHROCYTE COUNT” value (72 h, time 3 day) was 5.45 x10E6/uL and the HEMATOCRIT (72 h, time 3 day) was 33.7%. For the same molecule, the HEMOGLOBIN (72 h, time 3 day) was 13.47 G/DL, the “LEUKOCYTE COUNT” value (72 h, time 3 day) was 14.83 x10E3/uL and the LYMPHOCYTE (72 h, time 3 day) was 92.33%. For the same molecule, the “MEAN CORPUSCULAR HEMOGLOBIN” value (72 h, time 3 day) was 24.7 pg, the “MEAN CORPUSCULAR HEMOGLOBIN CONCENTRATION” value (72 h, time 3 day) was 39.97 G/DL and the “MEAN CORPUSCULAR VOLUME” value (72 h, time 3 day) was 61.87 fL. The MONOCYTE (72 h, time 3 day) was 0.67%, the NEUTROPHIL (72 h, time 3 day) was 7% and the “NUCLEATED RED BLOOD CELLS” value (72 h, time 3 day) was 0 /100WBC. For the same molecule, the “PLATELET COUNT” value (72 h, time 3 day) was 1150 x10E3/uL, the “ALANINE AMINOTRANSFERASE” value (72 h, time 3 day) was 50.33 u/L and the ALBUMIN (72 h, time 3 day) was 4.17 G/DL. The “ALKALINE PHOSPHATASE” value (72 h, time 3 day) was 404.33 u/L, the “ASPARTATE AMINOTRANSFERASE” value (72 h, time 3 day) was 82.67 u/L and the “BLOOD UREA NITROGEN” value (72 h, time 3 day) was 16 mg/dL. The “CARBON DIOXIDE” value (72 h, time 3 day) was 29.33 mmol/L, the CHLORIDE (72 h, time 3 day) was 99 MEQ/L and the CHOLESTEROL (72 h, time 3 day) was 46.33 mg/dL. The “CREATINE PHOSPHOKINASE” value (72 h, time 3 day) was 391.33 u/L, the CREATININE (72 h, time 3 day) was 0.19 mg/dL and the GLUCOSE (72 h, time 3 day) was 138.67 mg/dL. For the same molecule, the “LACTATE DEHYDROGENASE” value (72 h, time 3 day) was 200.67 u/L, the LIPASE (72 h, time 3 day) was 9 u/L and the PHOSPHORUS (72 h, time 3 day) was 10.7 mg/dL. The POTASSIUM (72 h, time 3 day) was 6.62 MEQ/L, the SODIUM (72 h, time 3 day) was 143.97 MEQ/L and the “TOTAL BILIRUBIN” value (72 h, time 3 day) was 0.33 mg/dL. For the same molecule, the “TOTAL PROTEIN” value (72 h, time 3 day) was 5.77 G/DL, the “URIC ACID” value (72 h, time 3 day) was 1.33 mg/dL and the “ABSOLUTE BASOPHIL” value (120 h, time 5 day) was 0 CELLS/uL. The “ABSOLUTE EOSINOPHIL” value (120 h, time 5 day) was 0 CELLS/uL, the “ABSOLUTE LYMPHOCYTE” value (120 h, time 5 day) was 14118 CELLS/uL and the “ABSOLUTE MONOCYTE” value (120 h, time 5 day) was 111.33 CELLS/uL. The “ABSOLUTE SEGMENTED NEUTROPHIL” value (120 h, time 5 day) was 770.67 CELLS/uL, the BASOPHIL (120 h, time 5 day) was 0% and the EOSINOPHIL (120 h, time 5 day) was 0%. For the same molecule, the “ERYTHROCYTE COUNT” value (120 h, time 5 day) was 5.69 x10E6/uL, the HEMATOCRIT (120 h, time 5 day) was 36.23% and the HEMOGLOBIN (120 h, time 5 day) was 14 G/DL. For the same molecule, the “LEUKOCYTE COUNT” value (120 h, time 5 day) was 15 x10E3/uL, the LYMPHOCYTE (120 h, time 5 day) was 94% and the “MEAN CORPUSCULAR HEMOGLOBIN” value (120 h, time 5 day) was 24.6 pg. For the same molecule, the “MEAN CORPUSCULAR HEMOGLOBIN CONCENTRATION” value (120 h, time 5 day) was 38.73 G/DL, the “MEAN CORPUSCULAR VOLUME” value (120 h, time 5 day) was 63.7 fL and the MONOCYTE (120 h, time 5 day) was 0.67%. For the same molecule, the NEUTROPHIL (120 h, time 5 day) was 5.33%, the “NUCLEATED RED BLOOD CELLS” value (120 h, time 5 day) was 0.33 /100WBC and the “PLATELET COUNT” value (120 h, time 5 day) was 1289.67 x10E3/uL. For the same molecule, the “ALANINE AMINOTRANSFERASE” value (120 h, time 5 day) was 54.33 u/L, the ALBUMIN (120 h, time 5 day) was 4.37 G/DL and the “ALKALINE PHOSPHATASE” value (120 h, time 5 day) was 439.33 u/L. The “ASPARTATE AMINOTRANSFERASE” value (120 h, time 5 day) was 88 u/L, the “BLOOD UREA NITROGEN” value (120 h, time 5 day) was 23 mg/dL and the “CARBON DIOXIDE” value (120 h, time 5 day) was 27 mmol/L. For the same molecule, the CHLORIDE (120 h, time 5 day) was 100.33 MEQ/L, the CHOLESTEROL (120 h, time 5 day) was 42.67 mg/dL and the “CREATINE PHOSPHOKINASE” value (120 h, time 5 day) was 236.67 u/L. For the same molecule, the CREATININE (120 h, time 5 day) was 0.22 mg/dL, the GLUCOSE (120 h, time 5 day) was 162.33 mg/dL and the “LACTATE DEHYDROGENASE” value (120 h, time 5 day) was 196.67 u/L. The LIPASE (120 h, time 5 day) was 8.67 u/L, the PHOSPHORUS (120 h, time 5 day) was 11.1 mg/dL and the POTASSIUM (120 h, time 5 day) was 6.53 MEQ/L. The SODIUM (120 h, time 5 day) was 144.3 MEQ/L, the “TOTAL BILIRUBIN” value (120 h, time 5 day) was 0.2 mg/dL and the “TOTAL PROTEIN” value (120 h, time 5 day) was 6.13 G/DL. The “URIC ACID” value (120 h, time 5 day) was 1.67 mg/dL.
